Measured values published in patent US20180311505A1, “METHODS FOR TREATING CANCER BY ENHANCING INTRATUMORAL IMMUNE RESPONSE” (THE GENERAL HOSPITAL CORPORATION, priority 2015, published 2018).

Test system: parental melanoma
Assay: Immune infiltrates (immunofluorescence, flow cytometry) in parental melanomas and draining lymph nodes
Assay type: in vivo, mouse
Experimental: Immunohistochemical analyses. Mouse tumors were collected 5 days after treatment initiation and formalin-fixed paraffin-embedded (FFPE). Slides were baked for 60 minutes in a 60° C. oven and loaded into the Bond III™ staining platform. Slides were antigen retrieved in Bond™ Epitope Retrieval 1 for 30 minutes at 100° C. then incubated with CD3 (Abcam™, ab16669) at 1:150 diluted in Bond™ Primary Antibody diluent for 30 minutes at room temperature. Primary antibody was detected using Bond™ Polymer Refine Detection kit, slides were developed in DAB, then dehydrated and coverslipped. For each of 3 samples per group, 3 random 20× magnification fields were chosen at the tumor center for quantification. The open-source CellProfiler™ cell image analysis software3 was used to quantify positively stained cells in each image. The analysis pipeline utilized the UnmixColors module to separate each image into one of the Hematoxylin stain and one of the DAB stain. The EnhanceOrSuppressFeatures module was applied to the DAB image to enhance cellular features. Finally, the IdentifyPrimaryObjects module was used to count the number of cells present in the enhanced image.
Immunofluorescence analyses. […]
Flow cytometry. […] Flow cytometry data were acquired on the BD™ LSRII flow cytometer and analyzed using FlowJo™ software (Tree Star™).

CC(C)Cn1cnc2c(N)nc3ccccc3c21 [imiquimod]
PD-L2 expression on CD11c+ dendritic cells (draining lymph nodes, parental melanoma-bearing mice): reduced | granzyme B+ fraction of CD8+ TILs (parental melanomas, imiquimod alone or with anti-PD-1 or aFP): expanded
